Test system: maternal HIV+ sera (antibodies)
Assay: RIA / ELISA binding of maternal HIV+ sera to gp120 and gp41 peptides (Example 3)
Parameters: species or system human
Method: Radioimmunoassay (RIA) and enzyme-linked immunosorbent assay (ELISA) were performed by standard methodologies [E. Engvall, Meth. Immunol., 70:419-439 (1980); S. K. Pierce et al, J. Exp. Med., 144:1254-1262 (1976)]. Peptides were dissolved in 0.05M carbonate-bicarbonate buffer (pH 9.6) at a concentration of 10 μg/ml. Fifty μl (500 ng) of the peptides were immobilized in 96 well polyvinylchloride plates (Dynatech Laboratories, Inc.) overnight at 4° C. Plates were washed and non-specific sites were blocked with PBS containing 1% BSA overnight at 4° C.
Dilutions of HIV positive maternal sera were made in blocking buffer at dilutions of 1:50 and 1:500 and incubated in peptide coated plates overnight at 4° C. Plates were washed with PBS and incubated with 75,000 cpm of ^125 I-labelled goat anti-human IgG. The antibody was iodinated by a chloramine T method [W. V. Williams et al, Proc. Natl. Acad. Sci. USA, 85:6488-6492 (1988)]. Plates were washed, dried and counted in a gamma counter to measure specific binding. Normal human serum (i.e., HIV seronegative) was used as a control.
Alternatively, ELISA assays were performed in polystyrene plates (Dynatech Laboratories, Inc) in which 0.05% Tween 20 (Sigma Chemical Co.) was included in the washing, blocking and dilution buffers. The secondary antibody used was goat […] Ig conjugated to horseradish peroxidase (HRP) (Sigma Chemical Co). The substrate used for color development was 3,3',5,5' tetramethyl-benzidine dihydrochloride (TMB) (Sigma Chemical Co). Absorbance of samples was measured in a Dynatech MR5000 (Dynatech Laboratories, Inc.) plate reader and expressed as an optical density at wavelength of 450 nm (OD450).
The following key is used for the designation of specific binding of the maternal sera samples to the peptides: The minus sign, -, is equivalent to the specific OD450 or cpm of sera sample binding to peptide divided by the specific OD450 or cpm of NHS sample binding to peptide, which value is less than 2. The plus sign, +, is equivalent to the specific OD450 or cpm of sera sample binding to peptide divided by the specific OD450 or cpm of NHS sample binding to peptide, which value is between 2 to 3.
Specific binding is defined as the difference between the OD450 or cpm of sera to wells with peptide and the OD450 or cpm of sera to wells without peptide.
Comparisons of number of peptides which bound maternal serum samples were made between the transmission group and the nontransmission group. The data was analyzed using the unpaired student's test. For the determination of differences in the binding of specific peptides between transmission and non-transmission groups, the Spearman's rank-order correlation test was performed.

[1] = Serum No. 1, Non-Transmission Group
[2] = Serum No. 2, Non-Transmission Group
[3] = Serum No. 3, Non-Transmission Group
[4] = Serum No. 4, Transmission Group
[5] = Serum No. 5, Transmission Group
[6] = Serum No. 6, Non-Transmission Group
[7] = Serum No. 7, Non-Transmission Group
[8] = Serum No. 8, Non-Transmission Group
[9] = Serum No. 9, Non-Transmission Group
[10] = Serum No. 10, Transmission Group
[11] = Serum No. 11, Non-Transmission Group
[12] = Serum No. 12, Non-Transmission Group
[13] = Serum No. 13, Transmission Group
[14] = Serum No. 14, Transmission Group
[15] = Serum No. 15, Transmission Group
[16] = Serum No. 16, Non-Transmission Group
[17] = Serum No. 17, Non-Transmission Group
[18] = Serum No. 18, Non-Transmission Group
[19] = Serum No. 19, Transmission Group
[20] = Serum No. 20, Non-Transmission Group

Sequence | Binding of maternal HIV+ serum to peptide (sera/NHS ratio) [1] | Binding of maternal HIV+ serum to peptide (sera/NHS ratio) [2] | Binding of maternal HIV+ serum to peptide (sera/NHS ratio) [3] | Binding of maternal HIV+ serum to peptide (sera/NHS ratio) [4] | Binding of maternal HIV+ serum to peptide (sera/NHS ratio) [5] | Binding of maternal HIV+ serum to peptide (sera/NHS ratio) [6] | Binding of maternal HIV+ serum to peptide (sera/NHS ratio) [7] | Binding of maternal HIV+ serum to peptide (sera/NHS ratio) [8] | Binding of maternal HIV+ serum to peptide (sera/NHS ratio) [9] | Binding of maternal HIV+ serum to peptide (sera/NHS ratio) [10] | Binding of maternal HIV+ serum to peptide (sera/NHS ratio) [11] | Binding of maternal HIV+ serum to peptide (sera/NHS ratio) [12] | Binding of maternal HIV+ serum to peptide (sera/NHS ratio) [13] | Binding of maternal HIV+ serum to peptide (sera/NHS ratio) [14] | Binding of maternal HIV+ serum to peptide (sera/NHS ratio) [15] | Binding of maternal HIV+ serum to peptide (sera/NHS ratio) [16] | Binding of maternal HIV+ serum to peptide (sera/NHS ratio) [17] | Binding of maternal HIV+ serum to peptide (sera/NHS ratio) [18] | Binding of maternal HIV+ serum to peptide (sera/NHS ratio) [19] | Binding of maternal HIV+ serum to peptide (sera/NHS ratio) [20] | also measured
VTRIVELLGRRGWEALKYWW [Peptide 57] | - (specific OD450 or cpm of sera sample binding to peptide divided by the specific OD450 or cpm of NHS sample binding to peptide, which value is less than 2) | - (specific OD450 or cpm of sera sample binding to peptide divided by the specific OD450 or cpm of NHS sample binding to peptide, which value is less than 2) | - (specific OD450 or cpm of sera sample binding to peptide divided by the specific OD450 or cpm of NHS sample binding to peptide, which value is less than 2) | - (specific OD450 or cpm of sera sample binding to peptide divided by the specific OD450 or cpm of NHS sample binding to peptide, which value is less than 2) | - (specific OD450 or cpm of sera sample binding to peptide divided by the specific OD450 or cpm of NHS sample binding to peptide, which value is less than 2) | - (specific OD450 or cpm of sera sample binding to peptide divided by the specific OD450 or cpm of NHS sample binding to peptide, which value is less than 2) | - (specific OD450 or cpm of sera sample binding to peptide divided by the specific OD450 or cpm of NHS sample binding to peptide, which value is less than 2) | ++ (which value is greater than 3) | - (specific OD450 or cpm of sera sample binding to peptide divided by the specific OD450 or cpm of NHS sample binding to peptide, which value is less than 2) | - (specific OD450 or cpm of sera sample binding to peptide divided by the specific OD450 or cpm of NHS sample binding to peptide, which value is less than 2) | - (specific OD450 or cpm of sera sample binding to peptide divided by the specific OD450 or cpm of NHS sample binding to peptide, which value is less than 2) | - (specific OD450 or cpm of sera sample binding to peptide divided by the specific OD450 or cpm of NHS sample binding to peptide, which value is less than 2) | - (specific OD450 or cpm of sera sample binding to peptide divided by the specific OD450 or cpm of NHS sample binding to peptide, which value is less than 2) | - (specific OD450 or cpm of sera sample binding to peptide divided by the specific OD450 or cpm of NHS sample binding to peptide, which value is less than 2) | - (specific OD450 or cpm of sera sample binding to peptide divided by the specific OD450 or cpm of NHS sample binding to peptide, which value is less than 2) | - (specific OD450 or cpm of sera sample binding to peptide divided by the specific OD450 or cpm of NHS sample binding to peptide, which value is less than 2) | - (specific OD450 or cpm of sera sample binding to peptide divided by the specific OD450 or cpm of NHS sample binding to peptide, which value is less than 2) | - (specific OD450 or cpm of sera sample binding to peptide divided by the specific OD450 or cpm of NHS sample binding to peptide, which value is less than 2) | - (specific OD450 or cpm of sera sample binding to peptide divided by the specific OD450 or cpm of NHS sample binding to peptide, which value is less than 2) | + (which value is between 2 to 3) | 
TRKSIRIQRGPGRAF [Peptide 107] | ++ (which value is greater than 3) | ++ (which value is greater than 3) | ++ (which value is greater than 3) | ++ (which value is greater than 3) | ++ (which value is greater than 3) | ++ (which value is greater than 3) | + (which value is between 2 to 3) | ++ (which value is greater than 3) | ++ (which value is greater than 3) | + (which value is between 2 to 3) | ++ (which value is greater than 3) | ++ (which value is greater than 3) | ++ (which value is greater than 3) | ++ (which value is greater than 3) | - (specific OD450 or cpm of sera sample binding to peptide divided by the specific OD450 or cpm of NHS sample binding to peptide, which value is less than 2) | ++ (which value is greater than 3) | ++ (which value is greater than 3) | ++ (which value is greater than 3) | ++ (which value is greater than 3) | ++ (which value is greater than 3) | Percentage of sera samples demonstrating binding to peptide, non-transmitter (Non-transmitter group, n = 13): 100%; Percentage of sera samples demonstrating binding to peptide, transmitter (Transmitter / transmission group, n = 7): 85.7%; Percent of the maternal serum samples that bound to the peptide (all 20 samples): 95%

Source: patent publication US5556744A, “Methods and compositions for diagnosing and treating certain HIV infected patients” (The Trustees of the University of Pennsylvania, priority 1994, dated 1996)
